Measured values as given in patent US6432969B1, “N-(substituted glycyl)-2 cyanopyrrolidines, pharmaceutical compositions containing them and their use in inhibiting dipeptidyl peptidase-IV” (Novartis AG, priority 2000, dated 2002).
Where a name gives a salt, the structure may show the parent alone.

Row | SMILES | melting point [°C]
1 | CC(C)(CNc1ccc(C(F)(F)F)cn1)NCC(=O)N1CCC[C@H]1C#N (as salt: hydrochloride) [Ex. 2B, 1-[[[2-[(5-trifluoromethyl-2-pyridinyl)amino]-1,1-dimethylethyl]amino]acetyl]-2-cyano-(S)-pyrrolidine] | 170 to 172
2 | CC(C)(Cc1ccc(F)cc1)NCC(=O)N1CCC[C@H]1C#N (as salt: hydrochloride) [Ex. 2BB] | 198 to 200
3 | CC(C)(Cc1ccccc1)NCC(=O)N1CCC[C@H]1C#N (as salt: hydrochloride) [Ex. 2CC, 1-[[(1,1-dimethyl-2-phenylethyl)amino]acetyl]-2-cyano-(S)-pyrrolidine] | 212 to 214
4 | CC(C)(CNc1ncccc1Cl)NCC(=O)N1CCC[C@H]1C#N (as salt: hydrochloride) [Ex. 2D, 1-[[[2-[(3-chloro-2-pyridinyl)amino]-1,1-dimethylethyl]amino]acetyl]-2-cyano-(S)-pyrrolidine] | 144 to 146
5 | CCCCCC12CCC(NCC(=O)N3CCC[C@H]3C#N)(CC1)CC2 (as salt: hydrochloride) [Ex. 2DD, 1-[[(4-pentylbicyclo[2.2.2]oct-1-yl)amino]acetyl]-2-cyano-(S)-pyrrolidine] | 99 to 102
6 | CC(C)(CNc1ncc(Cl)cc1Cl)NCC(=O)N1CCC[C@H]1C#N (as salt: hydrochloride) [Ex. 2F, 1-[[[2-[(3,5-dichloro-2-pyridinyl)amino]-1,1-dimethylethyl]amino]acetyl]-2-cyano-(S)-pyrrolidine] | 108 to 110
7 | CC(C)(CNc1ncccc1C(F)(F)F)NCC(=O)N1CCC[C@H]1C#N (as salt: hydrochloride) [Ex. 2G, 1-[[[2-[(3-trifluoromethyl-2-pyridinyl)amino]-1,1-dimethylethyl]amino]acetyl]-2-cyano-(S)-pyrrolidine] | 112 to 114
8 | CC(C)(CNC(=O)C(C)(C)C)NCC(=O)N1CCC[C@H]1C#N (as salt: hydrochloride) [Ex. 2H, 1-[[[2-[(2,2-dimethyl-1-oxopropyl)amino]-1,1-dimethylethyl]amino]acetyl]-2-cyano-(S)-pyrrolidine] | 225 to 227
9 | CC(C)(CNC(=O)c1ccc(Cl)cc1)NCC(=O)N1CCC[C@H]1C#N (as salt: hydrochloride) [Ex. 2I, 1-[[[2-[(4-chlorobenzoyl)amino]-1,1-dimethylethyl]amino]acetyl]-2-cyano-(S)-pyrrolidine] | 121 to 123
10 | CC(C)N(C(=O)NCC(C)(C)NCC(=O)N1CCC[C@H]1C#N)C(C)C (as salt: hydrochloride) [Ex. 2J, 1-[[[2-[[(diisopropylamino)carbonyl]amino]-1,1-dimethylethyl]amino]acetyl]-2-cyano-(S)-pyrrolidine] | 128 to 130
11 | CC(C)N(C(=O)N1CCC(NCC(=O)N2CCC[C@H]2C#N)CC1)C(C)C (as salt: hydrochloride) [Ex. 2JJ, 1-[[[1-[(diisopropylamino)carbonyl]-4-piperidinyl]amino]acetyl]-2-cyano-(S)-pyrrolidine] | 82 to 84
12 | CC(C)(CNC(=O)Nc1ccc(Cl)cc1)NCC(=O)N1CCC[C@H]1C#N (as salt: hydrochloride) [Ex. 2K, 1-[[[2-[[[(4-chlorophenyl)amino]carbonyl]amino]-1,1-dimethylethyl]amino]acetyl]-2-cyano-(S)-pyrrolidine] | 112 to 114
13 | N#C[C@@H]1CCCN1C(=O)CN[C@H]1CC[C@H](Nc2ncccc2C(F)(F)F)CC1 (as salt: hydrochloride) [Ex. 2P, 1-[[4-[[(3-trifluoromethyl-2-pyridinyl)amino]cyclohexyl]amino]acetyl]-2-cyano-(S)-pyrrolidine] | 289 to 292
14 | CC(C)(C)C(=O)NC1CCC(NCC(=O)N2CCC[C@H]2C#N)CC1 (stereo partly drawn) (as salt: hydrochloride) [Ex. 2U, 1-[[[4-[(2,2-dimethyl-1-oxopropyl)amino]cyclohexyl]amino]acetyl]-2-cyano-(S)-pyrrolidine] | 290 to 294
15 | N#C[C@@H]1CCCN1C(=O)CNC1CCC(NC(=O)C2CCCCC2)CC1 (stereo partly drawn) (as salt: hydrochloride) [Ex. 2X, 1-[[[4-[(cyclohexylcarbonyl)amino]cyclohexyl]amino]acetyl]-2-cyano-(S)-pyrrolidine] | 189 to 190
16 | N#C[C@@H]1CCCN1C(=O)CN[C@H]1CC[C@H](NS(=O)(=O)c2ccc(C(F)(F)F)cc2)CC1 (as salt: hydrochloride) [Ex. 2Z, 1-[[[4-[[[(4-trifluoromethyl)phenyl]sulfonyl]amino]cyclohexyl]amino]acetyl]-2-cyano-(S)-pyrrolidine] | 135 to 137
17 | N#C[C@@H]1CCCN1C(=O)CNC1CCN(C(=O)C2CCCCC2)CC1 (as salt: hydrochloride) [Ex. 4A, 1-[[[1-(cyclohexylcarbonyl)-4-piperidinyl]amino]acetyl]-2-cyano-(S)-pyrrolidine] | > 300
18 | CC(C)(CNc1ccc(C#N)cn1)NCC(=O)N1CCC[C@H]1C#N [Ex. 2A, 1-[[[2-[(5-cyano-2-pyridinyl)amino]-1,1-dimethylethyl]amino]acetyl]-2-cyano-(S)-pyrrolidine] | 47 to 49

The next lines start with the values.

Row | melting point [°C] | SMILES
19 | 270 to 273 | N#C[C@@H]1CCCN1C(=O)CNC1CCC(Nc2ccc(C(F)(F)F)cn2)CC1 (some centres unmarked) (as salt: hydrochloride)
20 | 75 to 77 | N#C[C@@H]1CCCN1C(=O)CN[C@H]1CC[C@H](NS(=O)(=O)c2cccs2)CC1 (as salt: hydrochloride) [Ex. 2AA]
21 | 232 to 235 | N#CC1CCCN1C(=O)CNC1CCC(Oc2ccc(Cl)cc2)CC1 (as salt: hydrochloride) [Ex. 2FF, 1-[[4-[4-chlorophenoxy)cyclohexyl]amino]acetyl]-2-cyano-(S)-pyrrolidine]
22 | 120 to 122 | N#C[C@@H]1CCCN1C(=O)CN[C@H]1CC[C@H](Oc2cccc(C(F)(F)F)c2)CC1 (as salt: hydrochloride) [Ex. 2GG, 1-[[[4-[(3-trifluoromethyl)phenoxy]cyclohexyl]amino]acetyl]-2-cyano-(S)-pyrrolidine]
23 | 72 to 74 | N#C[C@@H]1CCCN1C(=O)CN[C@H]1CC[C@H](Oc2cccc(Cl)c2)CC1 (as salt: hydrochloride) [Ex. 2HH]
24 | 172 to 174 | N#C[C@@H]1CCCN1C(=O)CNC1CCN(C(=O)Nc2ccc(Cl)cc2)CC1 (as salt: hydrochloride) [Ex. 2II, 1-[[[1-[[(4-chlorophenyl)amino]carbonyl]-4-piperidinyl]amino]acetyl]-2-cyano-(S)-pyrrolidine]
25 | 242 to 244 | N#Cc1ccc(NC2CCC(NCC(=O)N3CCC[C@H]3C#N)CC2)nc1 (stereo partly drawn) (as salt: hydrochloride) [Ex. 2L, 1-[[[4-[(5-cyano-2-pyridinyl)amino]cyclohexyl]amino]acetyl]-2-cyano-(S)-pyrrolidine]
26 | 160 to 162 | N#C[C@@H]1CCCN1C(=O)CNC1CCN(c2nc(-c3ccc(Cl)cc3)cs2)CC1 (as salt: hydrochloride) [Ex. 2LL]
27 | 120 to 122 | N#C[C@@H]1CCCN1C(=O)CNC1CCC(NS(=O)(=O)c2ccccc2)CC1 (stereo partly drawn) (as salt: hydrochloride) [Ex. 2M, 1-[[[4-[(phenylsulfonyl)amino]cyclohexyl]amino]acetyl]-2-cyano-(S)-pyrrolidine]
28 | 154 to 156 | COc1ccc(-c2csc(N3CCC(NCC(=O)N4CCC[C@H]4C#N)CC3)n2)cc1 (as salt: hydrochloride) [Ex. 2MM]
29 | 160 to 162 | N#C[C@@H]1CCCN1C(=O)CN[C@H]1CC[C@H](NS(=O)(=O)c2ccc(Cl)cc2)CC1 (as salt: hydrochloride) [Ex. 2Q, 1-[[[[4-[(4-chlorophenyl)sulfonyl]amino]cyclohexyl]amino]acetyl]-2-cyano-(S)-pyrrolidine]
30 | 290 to 293 | N#C[C@@H]1CCCN1C(=O)CNC1CCC(Nc2ccnc(Cl)n2)CC1 (stereo partly drawn) (as salt: hydrochloride) [Ex. 2S, 1-[[[4-[(2-chloro-4-pyrimidinyl)amino]cyclohexyl]amino]acetyl]-2-cyano-(S)-pyrrolidine]
31 | 260 to 263 | N#C[C@@H]1CCCN1C(=O)CN[C@H]1CC[C@H](NC(=O)c2ccc(Cl)cc2)CC1 (as salt: hydrochloride) [Ex. 2T, 1-[[[4-[(4-chlorobenzoyl)amino]cyclohexyl]amino]acetyl]-2-cyano-, (S)-pyrrolidine]
32 | 246 to 248 | N#C[C@@H]1CCCN1C(=O)CNC1CCC(Nc2nc3ccccc3s2)CC1 (stereo partly drawn) (as salt: hydrochloride) [Ex. 2V, 1-[[[4-[(2-benzothiazolyl)amino]cyclohexyl]amino]acetyl]-2-cyano-(S)-pyrrolidine]
33 | 165 to 167 | N#Cc1ccc(NC2CCC(NCC(=O)N3CCC[C@H]3C#N)CC2)cc1 (stereo partly drawn) (as salt: hydrochloride) [Ex. 2W, 1-[[[4-[(4-cyanophenyl)amino]cyclohexyl]amino]acetyl]-2-cyano-(S)-pyrrolidine]
34 | 290 to 294 | N#C[C@@H]1CCCN1C(=O)CNC1CCC(Nc2nc3cc(Cl)ccc3s2)CC1 (stereo partly drawn) (as salt: hydrochloride) [Ex. 2Y, 1-[[[4-[(5-chloro-2-benzothiazolyl)amino]cyclohexyl]amino]acetyl]-2-cyano-(S)-pyrrolidine]
35 | 152 to 155 | N#C[C@@H]1CCCN1C(=O)CNC1CCN(C(=O)c2ccc(Cl)cc2)CC1 (as salt: hydrochloride) [Ex. 4B]
36 | > 300 | N#C[C@@H]1CCCN1C(=O)CNC1CCN(S(=O)(=O)c2ccc(C(F)(F)F)cc2)CC1 (as salt: hydrochloride) [Ex. 4C]
37 | > 300 | N#C[C@@H]1CCCN1C(=O)CNC1CCN(S(=O)(=O)c2ccccc2)CC1 (as salt: hydrochloride) [Ex. 4D, 1-[[(1-phenylsulfonyl-4-piperidinyl)amino]acetyl]-2-cyano-(S)-pyrrolidine]
38 | 78 to 80 | N#C[C@@H]1CCCN1C(=O)CNC1CCC(NC(=O)c2ccccc2)CC1 (stereo partly drawn) [Ex. 2N, 1-[[[4-(benzoylamino)cyclohexyl]amino]acetyl]-2-cyano-(S)-pyrrolidine]
